Measurements: patent US8183239B2, “Substituted piperazines and piperidines as modulators of the neuropeptide Y2 receptor” (Janssen Pharmaceutica NV, priority 2005, dated 2012)

Target: T1, Y2 receptors (Homo sapiens, UniProt P49146)
T1 construct: endogenous in cells; host or cells: KAN-Ts cells (membranes)
T1 sequence (P49146 1-381): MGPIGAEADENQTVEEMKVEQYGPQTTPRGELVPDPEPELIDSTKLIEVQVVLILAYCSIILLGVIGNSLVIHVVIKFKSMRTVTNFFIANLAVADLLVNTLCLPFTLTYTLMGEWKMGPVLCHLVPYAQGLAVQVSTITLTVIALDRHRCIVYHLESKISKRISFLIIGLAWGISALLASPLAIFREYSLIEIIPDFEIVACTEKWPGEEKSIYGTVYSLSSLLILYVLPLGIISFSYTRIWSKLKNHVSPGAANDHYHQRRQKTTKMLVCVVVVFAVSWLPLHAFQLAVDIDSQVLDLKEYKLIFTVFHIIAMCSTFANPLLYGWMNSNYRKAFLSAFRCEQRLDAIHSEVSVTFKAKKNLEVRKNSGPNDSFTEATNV
Assay: Radioligand binding assay ([125I]PYY, KAN-Ts cell membranes)
Conditions: Table 1, [125I]PYY 80 pM, average of results, read-out: IC50
Experimental: Radioligand Binding Assay
KAN-Ts endogenously expressing Y2 receptors were used for the radioligand binding assay. Cells were grown to confluence on 150 cm^2 tissue culture plates, washed with phosphate-buffered saline (PBS), and scraped into 50 mL tubes. After centrifugation, the supernatant was aspirated, and the pellets frozen and stored at −80° C. Thawed pellets were homogenized with a polytron tissue grinder for 15 sec in 20 mM Tris-HCl, 5 mM EDTA. The homogenate was centrifuged at 800×g for 5 min and the collected supernatant was recentrifuged at 25000×g for 25 min. The resulting pellet was resuspended in binding buffer (20 mM HEPES, 120 mM NaCl, 0.22 mM KH2PO4, 1.3 mM CaCl2, 0.8 mM MgSO4). Membranes were incubated with [^125I]PYY (80 pM) in the presence or absence of test compound for 1 h at rt. The reaction was stopped by filtration through GF/C filter plates pre-soaked in 0.3% polyethylenimine and subsequently washed with Tris 50 mM, 5 mM EDTA buffer. Plates were dried for 1 h in a 55° C. oven, scintillation fluid was added and the radioactivity was counted in a Packard TopCount. Specific binding to the NPY receptor subtypes was determined by radioactivity that was bound in the presence of […]. Each binding experiment was repeated three to eight times, each in duplicate. IC50 values (i.e. concentration of unlabelled peptide or antagonist required to compete for 50% of specific binding to the radioligand) were calculated using the GraphPad Prism software (GraphPad Software Inc., San Diego Calif.) with a fit to a sigmoidal dose response curve. Data for compounds tested are presented in Tables 1 and 2 as an average of results obtained.

| IC50 | SMILES |
| --- | --- |
| 2500 nM | COC(=O)C(c1ccccc1)N1CCN(c2ccc(NC(=O)c3ccccc3)cc2F)CC1 (stereo not drawn) [Example 61, [4-(4-Benzoylamino-2-fluoro-phenyl)-piperazin-1-yl]-phenyl-acetic acid methyl ester] |
| 1300 nM | COC(=O)C(c1ccccc1)N1CCN(c2ccc(NC(=O)c3ccccc3C)cc2F)CC1 (stereo not drawn) [Example 62, {4-[2-Fluoro-4-(2-methyl-benzoylamino)-phenyl]-piperazin-1-yl}-phenyl-acetic acid methyl ester] |
| 600 nM | CCc1ccccc1C(=O)Nc1ccc(N2CCN(C(C(=O)OC)c3ccccc3)CC2)c(F)c1 (stereo not drawn) [Example 63, {4-[4-(2-Ethyl-benzoylamino)-2-fluoro-phenyl]-piperazin-1-yl}-phenyl-acetic acid methyl ester] |
| 1000 nM | COC(=O)C(c1ccccc1)N1CCN(c2ccc(NC(=O)c3ccccc3C(C)C)cc2F)CC1 (stereo not drawn) [Example 64, {4-[2-Fluoro-4-(2-isopropyl-benzoylamino)-phenyl]-piperazin-1-yl}-phenyl-acetic acid methyl ester] |
| 1300 nM | COC(=O)C(c1ccccc1)N1CCN(c2ccc(NC(=O)c3ccccc3OC)cc2F)CC1 (stereo not drawn) [Example 65, {4-[2-Fluoro-4-(2-methoxy-benzoylamino)-phenyl]-piperazin-1-yl}-phenyl-acetic acid methyl ester] |
| 1400 nM | CNc1ccccc1C(=O)Nc1ccc(N2CCN(C(C(=O)OC)c3ccccc3)CC2)c(F)c1 (stereo not drawn) [Example 68, {4-[2-Fluoro-4-(2-methylamino-benzoylamino)-phenyl]-piperazin-1-yl}-phenyl-acetic acid methyl ester] |

More lines, now with the values behind:

| SMILES | IC50 |
| --- | --- |
| COC(=O)C(c1ccccc1)N1CCN(c2ccc(NC(=O)c3ccccc3C(C)C)cc2)CC1 (stereo not drawn) [Example 52, {4-[4-(2-Isopropyl-benzoylamino)-phenyl]-piperazin-1-yl}-phenyl-acetic acid methyl ester] | 1400 nM |
| COC(=O)C(c1ccccc1)N1CCN(c2ccc(NC(=O)c3ccccc3Cl)cc2)CC1 (stereo not drawn) [Example 53, {4-[4-(2-Chloro-benzoylamino)-phenyl]-piperazin-1-yl}-phenyl-acetic acid methyl ester] | 12600 nM |
| COC(=O)C(c1ccccc1)N1CCN(c2ccc(NC(=O)c3ccccc3OC)cc2)CC1 (stereo not drawn) [Example 56, {4-[4-(2-Methoxy-benzoylamino)-phenyl]-piperazin-1-yl}-phenyl-acetic acid methyl ester] | 4000 nM |
| CNc1ccccc1C(=O)Nc1ccc(N2CCN(C(C(=O)OC)c3ccccc3)CC2)cc1 (stereo not drawn) [Example 58, {4-[4-(2-Methylamino-benzoylamino)-phenyl]-piperazin-1-yl}-phenyl-acetic acid methyl ester] | 3000 nM |
| COC(=O)C(c1ccccc1)N1CCN(c2ccc(NC(=O)C3CCCC3)cc2)CC1 (stereo not drawn) [Example 59, {4-[4-(Cyclopentanecarbonyl-amino)-phenyl]-piperazin-1-yl}-phenyl-acetic acid methyl ester] | 13100 nM |
| CCC(CC)C(=O)Nc1ccc(N2CCN(C(C(=O)OC)c3ccccc3)CC2)cc1 (stereo not drawn) [Example 60, {4-[4-(2-Ethyl-butyrylamino)-phenyl]-piperazin-1-yl}-phenyl-acetic acid methyl ester] | 527 nM |
| CCc1cccc(C(=O)Nc2ccc(N3CCN(C(C(=O)OC)c4ccccc4)CC3)cc2)c1 (stereo not drawn) [Example 69, {4-[4-(3-Ethyl-benzoylamino)-phenyl]-piperazin-1-yl}-phenyl-acetic acid methyl ester] | 25000 nM |
| COC(=O)C(c1ccccc1)N1CCN(c2ccc(NC(=O)c3cccc(C)c3)cc2)CC1 (stereo not drawn) [Example 72, {4-[4-(3-Methyl-benzoylamino)-phenyl]-piperazin-1-yl}-phenyl-acetic acid methyl ester] | 6000 nM |
| COC(=O)C(c1ccccc1)N1CCN(c2ccc(NC(=O)CCC(C)C)cc2F)CC1 (stereo not drawn) [Example 78, {4-[2-Fluoro-4-(4-methyl-pentanoylamino)-phenyl]-piperazin-1-yl}-phenyl-acetic acid methyl ester] | 230 nM |
